Experiments:
[1] = Poly(S-alkyl-L-methionine) stability studies in aqueous buffers; format: physicochemical; details: aqueous buffers ranging in pH from 5 to 9; 37° C., 24 h; S-alkyl-Met/Met ratio by 1H NMR
Method: The mixture was incubated on a 37° C. H2O bath for 24 h. […] The retentate was lyophilized.

[2] = potent nucleophile 2-mercaptopyridine; 37° C., 24 h

In the case of “Poly(S-(3-azido-2-hydroxypropyl)-L-methionine sulfonium chloride) [compound 4]”, the “stability in aqueous buffers” value [1] is reported as “good stability” and the “stability against dealkylation by nucleophile” value [2] is reported as “quite stable”.

Reference: patent US10351591B2, “Polypeptides, peptides, and proteins functionalized by alkylation of thioether groups via ring-opening reactions” (The Regents of the University of California, priority 2015, dated 2019)
